Data taken from the supplement of paper PMC10307832.

Tests used:
Assay in all cases: relative viability (nuclei count vs DMSO), 5 days (fraction); higher = more cells survive
[1] = compound: C1=CC2=NC=CN=C2C=C1/C=C/3\C(=O)NC(=O)S3 + CC(=O)c1c(C)c2cnc(Nc3ccc(N4CCNCC4)cn3)nc2n(C2CCCC2)c1=O [Palbociclib] (partner 0.5 µM)
Outline: (§1)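 Relative viability equals treated-well nuclei counts divided by vehicle-well nuclei counts. Counts came from 4× images of lung cancer cell lines grown in 1536-well plates for 5 days after pin-tool dosing on the day after seeding. Dosing used one drug alone or a fixed anchor-drug dose plus five library-drug doses (not always all listed) in √10 steps, and values are medians of duplicate plates.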

BGJ398 + Palbociclib = compound: CCN1CCN(c2ccc(Nc3cc(N(C)C(=O)Nc4c(Cl)c(OC)cc(OC)c4Cl)ncn3)cc2)CC1 [BGJ398] + CC(=O)c1c(C)c2cnc(Nc3ccc(N4CCNCC4)cn3)nc2n(C2CCCC2)c1=O [Palbociclib] (partner 0.5 µM)
Outline: as §1

[2] = compound: C1=CC2=NC=CN=C2C=C1/C=C/3\C(=O)NC(=O)S3 + NC(=O)Nc1cc(-c2cccc(F)c2)sc1C(=O)N[C@H]1CCCNC1 [AZD7762] (partner 0.2 µM)
Outline: as §1

[3] = compound: C1=CC2=NC=CN=C2C=C1/C=C/3\C(=O)NC(=O)S3 + CCNC(=O)c1noc(-c2cc(C(C)C)c(O)cc2O)c1-c1ccc(CN2CCOCC2)cc1 [Luminespib] (partner 0.01 µM)
Outline: as §1

| Cell Line | relative viability ([1]; first compound 0.02 µM) | relative viability ([1]; first compound 0.06325 µM) | relative viability ([1]; first compound 0.2 µM) | relative viability ([1]; first compound 0.6325 µM) | relative viability ([1]; first compound 2 µM) | relative viability (BGJ398 + Palbociclib; first compound 0.01 µM) | relative viability (BGJ398 + Palbociclib; first compound 0.03162 µM) | relative viability (BGJ398 + Palbociclib; first compound 0.1 µM) | relative viability (BGJ398 + Palbociclib; first compound 0.3162 µM) | relative viability (BGJ398 + Palbociclib; first compound 1 µM) | relative viability ([2]; first compound 0.02 µM) | relative viability ([2]; first compound 0.06325 µM) | relative viability ([2]; first compound 0.2 µM) | relative viability ([2]; first compound 0.6325 µM) | relative viability ([2]; first compound 2 µM) | relative viability ([3]; first compound 0.02 µM) | relative viability ([3]; first compound 0.06325 µM) | relative viability ([3]; first compound 0.2 µM) | relative viability ([3]; first compound 0.6325 µM) | relative viability ([3]; first compound 2 µM) |
| --- | --- | --- | --- | --- | --- | --- | --- | --- | --- | --- | --- | --- | --- | --- | --- | --- | --- | --- | --- | --- |
| HCC-44 | 0.866 | 0.946 | 1.03 | 0.969 | 0.919 | 0.919 | 0.962 | 1.03 | 1.02 | 0.856 | 0.885 | 1 | 1.02 | 1.01 | 1 | 1 | 0.829 | 1.06 | 1.04 | 0.868 |
| HCC-827 | 0.616 | 0.436 | 0.425 | 0.51 | 0.473 | 0.26 |  | 0.469 | 0.45 | 0.518 | 0.218 | 0.155 | 0.261 | 0.265 | 0.114 | 0.716 | 0.871 | 0.64 | 0.587 | 0.746 |
| NCI-H1623 |  |  |  |  |  |  |  |  |  |  |  |  |  |  |  | 0.379 | 0.431 | 0.474 | 0.47 | 0.335 |
| NCI-H2347 | 0.456 | 0.382 | 0.415 | 0.443 | 0.429 | 0.427 | 0.467 | 0.477 | 0.47 | 0.422 | 0.773 | 0.692 | 0.778 | 0.745 | 0.704 | 0.38 | 0.288 | 0.548 | 0.354 | 0.431 |
| PC-14 | 0.492 | 0.539 | 0.559 | 0.488 | 0.587 | 0.505 | 0.524 | 0.664 |  | 0.513 | 0.421 | 0.272 | 0.423 | 0.322 | 0.299 | 0.145 | 0.19 | 0.195 | 0.193 | 0.152 |
| NCI-H1651 | 0.495 | 0.503 | 0.507 | 0.515 | 0.453 | 0.507 | 0.561 | 0.554 | 0.54 | 0.498 | 0.472 | 0.289 | 0.508 | 0.471 | 0.417 | 0.848 | 0.842 | 0.77 | 0.753 | 0.842 |
| HARA | 0.27 | 0.261 | 0.241 | 0.213 | 0.238 | 0.242 | 0.257 | 0.228 | 0.289 | 0.188 | 0.255 | 0.209 | 0.402 | 0.276 | 0.493 | 0.811 | 0.643 | 0.706 | 0.742 | 0.797 |
| NCI-H1650 | 0.218 | 0.43 | 0.37 | 0.347 | 0.343 | 0.298 | 0.375 | 0.28 | 0.182 | 0.249 |  |  |  |  |  | 0.221 | 0.194 | 0.209 | 0.209 | 0.171 |
| NCI-H1395 | 0.621 | 0.58 | 0.642 | 0.622 | 0.594 | 0.603 | 0.587 | 0.464 | 0.458 | 0.481 | 0.392 | 0.393 | 0.424 | 0.372 | 0.411 | 0.807 | 0.693 | 0.719 | 0.607 | 0.794 |
| LU99A | 0.444 | 0.389 | 0.439 | 0.398 | 0.276 | 0.426 | 0.442 | 0.438 | 0.392 | 0.364 | 0.392 | 0.352 | 0.369 | 0.36 | 0.223 | 0.296 | 0.207 | 0.294 | 0.267 | 0.24 |
| NCI-H1355 | 0.359 | 0.419 | 0.401 | 0.359 | 0.358 | 0.417 | 0.402 | 0.376 | 0.389 | 0.386 | 0.789 | 0.67 | 0.749 | 0.691 | 0.544 | 0.687 | 0.516 | 0.751 | 0.631 | 0.608 |
| HCC-78 | 0.471 | 0.475 | 0.483 | 0.535 | 0.423 | 0.44 | 0.472 | 0.492 | 0.455 | 0.459 | 0.681 | 0.567 | 0.684 | 0.732 | 0.202 |  |  |  |  |  |
| NCI-H1563 |  |  |  |  |  |  |  |  |  |  |  |  |  |  |  | 0.512 | 0.469 | 0.514 | 0.438 | 0.509 |
| HCC-15 | 0.708 | 0.715 | 0.71 | 0.725 | 0.657 | 0.713 | 0.743 | 0.79 | 0.769 | 0.753 | 1.01 | 1.05 | 1.16 | 1.18 | 1 | 0.278 | 0.197 | 0.271 | 0.304 | 0.214 |
| EKVX | 0.384 | 0.428 | 0.342 | 0.381 | 0.405 | 0.436 | 0.291 | 0.384 | 0.359 | 0.394 | 0.677 | 0.653 | 0.595 | 0.692 | 0.436 | 0.846 | 0.636 | 0.831 | 0.839 | 0.776 |
| NCI-H2087 | 0.195 | 0.229 | 0.215 | 0.268 | 0.222 | 0.266 | 0.224 | 0.204 | 0.282 | 0.184 | 1.14 | 1.36 | 1.21 | 1.21 | 1.26 | 0.169 | 0.208 | 0.227 | 0.173 | 0.203 |
| LK-2 | 0.593 | 0.767 | 0.619 | 0.665 | 0.24 | 0.638 | 0.862 | 0.489 | 0.336 | 0.191 | 0.43 | 0.538 | 0.466 | 0.4 | 0.14 | 0.186 | 0.202 | 0.28 | 0.175 | 0.175 |
| NCI-H1437 | 0.306 | 0.297 | 0.328 | 0.305 | 0.277 | 0.383 | 0.309 | 0.323 | 0.337 | 0.278 | 1.18 | 1.11 | 1.09 | 1.09 | 0.609 | 1.09 | 1.14 | 1.05 | 1.08 | 1.12 |
